Source: patent publication US10987407B2, “Methods and compositions for treating hypoglycemic disorders” (priority 2007, dated 2021)
Entries after “also recorded” stand apart in the source; their conditions may differ. Like-named read-outs stand apart in the source and are kept apart here. Marks after values point to notes of the source that are not given here.

Tests used:
SUR-1−/− mice [1] = assay: Fasting blood glucose during continuous subcutaneous exendin-(9-39) infusion in SUR-1−/− mice; assay type: in vivo, mouse; details: 150 pmol/kg/min s.c. pump, day 3, mean±SEM, vehicle 63.2±4.9
Text: (§1) SUR-1^−/− mice were kindly provided by Dr. Mark A. Magnuson. The generation and genotyping of SUR-1^−/− mice were previously described (8). Mice are maintained in a C57Bl/6 genetic background. Twelve to eighteen week SUR-1^−/− and wild-type littermatte control mice were used in all experiments. Mice were maintained on a 12:12-h light-dark cycle and were fed a standard rodent chow diet. All procedures were approved and carried out according to the University of Pennsylvania Institutional Animal Care and Use Committee guidelines. […]
(§2) For determination of fasting blood glucose levels mice were fasted for 12-16 hours. […] Blood glucose levels were measured using a hand-held glucose meter (FreeStyle; TheraSense, Alameda, Calif.). Insulin and glucagon were measured by ELISA (Mouse Endocrine Immunoassay Panel; Linco Research, Inc., St. Charles, Mo.).
(§3) Twelve-18 week old male SUR-1^−/− and wildtype littermates underwent a baseline evaluation including fasting blood glucose measurements and oral glucose tolerance testing, followed by randomization to treatment with exendin-(9-39) (150 pmol/kg/min) or vehicle (0.9% NaCl, 1% BSA). Fasting blood glucose levels were determined after an overnight fast on days 3 and 7 of the infusion. In addition, oral glucose tolerance and insulin sensitivity were evaluated during treatment. […]

[2] = test system: wild-type littermate control mice; assay: Fasting blood glucose during continuous subcutaneous exendin-(9-39) infusion in wild-type littermates; assay type: in vivo, mouse; details: 150 pmol/kg/min s.c. pump
Text: as §1, §2, §3

SUR-1−/− mice [3] = assay: Fasting hormonal profile (insulin, glucagon, insulin/glucose ratio) during treatment; assay type: in vivo, mouse
Description: (§4) Alzet mini-osmotic pumps (model 2002; Alza, Palo Alto, Calif.) were implanted subcutaneously to deliver exendin-(9-39) (Bachem Bioscience, King of Prussia, Pa.) at a rate of 150 pmol/kg/min or vehicle (0.9% NaCl/1% BSA) for 2 weeks. For determination of fasting blood glucose levels mice were fasted for 12-16 hours. Oral glucose tolerance testing was carried after a 12-16 hour fast by administering 2 g/kg of dextrose by oral gavage (feeding needles; Popper and Sons, Inc., Hyde Park, N.Y.). For insulin tolerance testing mice received 0.5 units/kg of insulin intraperitoneally after a 4 hour fast. Blood glucose levels were measured using a hand-held glucose meter (FreeStyle; TheraSense, Alameda, Calif.). Insulin and glucagon were measured by ELISA (Mouse Endocrine Immunoassay Panel; Linco Research, Inc., St. Charles, Mo.).

SUR-1−/− mice [4] = assay: Oral glucose tolerance test in SUR-1−/− mice; assay type: in vivo, mouse
Description: as §4

wild-type littermates = assay: Oral glucose tolerance test in wild-type littermates; assay type: in vivo, mouse; details: wild-type littermates during treatment
Description: as §4

[5] = test system: SUR-1−/− and wild-type mice; assay: Insulin tolerance test (insulin sensitivity); assay type: in vivo, mouse; details: any of the treatment groups; 0.5 units/kg insulin i.p.
Description: as §4, with “Mo.). To determine the mechanism of action for the effect of exendin-(9-39) on fasting blood glucose levels insulin sensitivity was assessed by an insulin tolerance test.” for “Mo.).”

SUR-1−/− islets [6] = assay: Perifusion of isolated islets with amino acid ramp, insulin release; assay type: cell-based, mouse
Description: Islets were isolated by collagenase digestion and cultured for 3 days in RPMI 1640 medium containing 10 mM glucose. The culture medium was supplemented with 10% fetal bovine serum, 2 mM glutamine, 100 units/mL penicillin, and 50 μg/mL streptomycin. Islets were incubated at 37° C. in a 5% CO2, 95% air-humidified incubator. Batches of 100 cultured mouse islets were loaded onto a nylon filter in a chamber and perifused with Krebs-Ringer bicarbonate buffer (115 mM NaCl, 24 mM NaHCO3, 5 mM KCl, 1 mM MgCl2, 2.5 mM CaCl2), 10 mM HEPES, pH 7.4) with 0.25% bovine serum albumin at a flow rate of 2 mL/min. Perifusate solutions were gassed with 95% 02, 5% CO2 and maintained at 37° C. Islets were stimulated with a ramp of amino acids. […] Insulin was measured by radioimmunoassay (Linco Research Inc., St. Charles, Mo.).
Given the observed in vivo effects on insulin secretion but not insulin sensitivity, it was next determined whether exendin-(9-39) exerts a direct effect on SUR-1^−/− islet function. […]

SUR-1−/− islets [7] = assay: cAMP content in static incubations of isolated islets; assay type: cell-based, mouse
Description: Islets were isolated as above, hand-picked and cultured for three days. Cultured islets were preincubated in glucose free Krebs-Ringer bicarbonate buffer for 60 min, 100 nM exendin-(9-39) was added 30 min into the preincubation period. Then, islets were exposed to different treatments for an additional 30 min in the presence of 0.1 mM isobutyl-methylzanthine (IBMX). After incubation, islets were washed 2 times by cold glucose-free Hank's buffer. cAMP was measured in islet lysates by ELISA (GE/Amersham Biosciences, Piscataway, N.J.). The effect of exendin-(9-39) on cAMP was determined in static incubations of isolated islets.

SUR-1−/− islets [8] = assay: Insulin secretion in static incubations of isolated islets; assay type: cell-based, mouse
SUR-1−/− islets [9] = assay: Cytosolic free Ca2+ measurement (Fura-2) in islets; assay type: cell-based, mouse
Description: Mouse islets were isolated and cultured on poly-[…] coated glass coverslips under the same conditions as described above. The perifusion procedure and cytosolic-free Ca2+([Ca2+]i) measurement were described previously (24). In brief, the coverslip with attached islets was incubated with 15 μM Fura-2 acetoxymethylester (Molecular Probes, Eugene, Oreg.) in Krebs-Ringer bicarbonate buffer with 5 mM glucose for 35 min at 37° C. Islets were then perifused with Krebs-Ringer bicarbonate buffer with 0.25% bovine serum albumin at 37° C. at a flow rate of 2 mL/min, while various agents were applied. [Ca2+]i was measured with a dual wavelength fluorescence microscope as previously described. The effect of exendin-(9-39) on the characteristically elevated intracellular calcium concentration of SUR-1^-/- islets was studied. […] As previously reported, amino acids caused a transient further rise in intracellular calcium.

[10] = test system: subject with congenital hyperinsulinism due to a mutation in ABCC8; assay: Intravenous exendin-(9-39) infusion in fasting subjects with congenital hyperinsulinism; assay type: in vivo, human
Description: After an overnight fast, subject received an intravenous infusion of 0.9% NaCl for 60 min followed by a 6 hour intravenous infusion of exendin-(9-39) at ascending doses every 120 min (100 pmol/kg/min for 120 min, then 300 pmol/kg/min for 120 min and then 500 pmol/kg/min for 120 min). On the second day, 0.9% NaCl was infused intravenously after an overnight fast for a total of 7 hours.
Blood samples for glucose, insulin, C-peptide, glucagon and GLP-1 were obtained at different intervals during the infusions.

[11] = among the treatment groups, during treatment
[12] = fasting HI subject, i.v. ascending doses

## exendin-(9-39)
SUR-1−/− mice [1]
  Fasting blood glucose levels: 82.2 ± 6.3 mg/dL
[2]
  Fasting blood glucose levels vs vehicle-treated wild type controls: not different
SUR-1−/− mice [3]; SUR-1−/− mice, exendin-(9-39) treatment vs WT
  Insulin/glucose ratio: normalized
SUR-1−/− mice [3]; [11]
  Fasting glucagon levels: not different
  Fasting insulin levels: not different
SUR-1−/− mice [4]; SUR-1−/− mice during treatment
  Glucose tolerance (oral, 2 g/kg): did not significantly impair; also recorded: did not influence
SUR-1−/− mice [4]; SUR-1−/− mice, 120 minute time point
  Return to baseline blood glucose levels after oral glucose: minor delay
wild-type littermates
  Glucose tolerance (oral, 2 g/kg): no effect
[5]
  Peripheral insulin sensitivity (insulin tolerance test): did not impact; also recorded: did not influence
SUR-1−/− islets [6]; 100 nM exendin-(9-39), amino acid mixture 0-12 mM
  Insulin release in response to amino acid ramp stimulation: blocked
SUR-1−/− islets [6]; presence vs absence of exendin-(9-39)
  Insulin response to KCl: similar
SUR-1−/− islets [7]; 100 nM exendin-(9-39) with 4 mM amino acid mixture (AAM)
  cAMP Content: 20.9±4.4 pmol/100 islets
SUR-1−/− islets [7]; 100 nM exendin-(9-39) with 4 mM amino acid mixture (AAM), listed as Exendin-(9-39)
  cAMP Content: 52.5 ± 9.4 ^c pmol/100 islets
SUR-1−/− islets [7]; basal, 100 nM exendin-(9-39), no exogenous GLP-1, baseline 40.1±4.2
  cAMP Content: 20.5±2.3 pmol/100 islets
SUR-1−/− islets [7]; basal, 100 nM exendin-(9-39), no exogenous GLP-1, baseline 40.1±4.2, listed as Exendin-(9-39)
  cAMP Content: 20.5 ± 2.3 ^a pmol/100 islets
SUR-1−/− islets [8]; 100 nM exendin-(9-39) with 4 mM AAM, AAM alone 389±17
  Insulin Secretion: 219±14 ng/100 islets/30 min
SUR-1−/− islets [8]; 100 nM exendin-(9-39) with 4 mM AAM, AAM alone 389±17, listed as Exendin-(9-39)
  Insulin Secretion: 219 ± 14 ng/100 islets/30 min
SUR-1−/− islets [8]; baseline, 100 nM exendin-(9-39), baseline without 221±22
  Insulin Secretion: 126±12 ng/100 islets/30 min
SUR-1−/− islets [8]; baseline, 100 nM exendin-(9-39), baseline without 221±22, listed as Exendin-(9-39)
  Insulin Secretion: 126 ± 12 ^a ng/100 islets/30 min
SUR-1−/− islets [9]
  Basal intracellular calcium: did not impact
SUR-1−/− islets [9]; amino acids 4 mM
  Amino acid-stimulated rise in intracellular calcium: no effect
SUR-1−/− islets [9]; listed as Exendin-(9-39)
  Basal intracellular calcium: did not affect
[10]; another 2 human subjects
  Fasting blood glucose levels: elevation
[10]; fasting HI subject, i.v. 100, 300, 500 pmol/kg/min each 120 min, saline infusion dropped below 60
  Blood glucose levels during infusion: above 80 mg/dL
[10]; [12]
  Fasting hypoglycemia: prevented
  Plasma insulin: suppressed
